In article PMC10800708, “Efficacies and ADME properties of redox active methylene blue and phenoxazine analogues for use in new antimalarial triple drug combinations with amino-artemisinins” (Frontiers in Pharmacology, 2024):

Legend:
[1] = tested on: Plasmodium falciparum DD2; assay: Parasite lactate dehydrogenase (pLDH) assay over 72 h, CQ-resistant strain; format: cell-based; conditions: for Resistance index: IC50 (resistant strain)/IC50 (sensitive strain), DD2/NF54; for IC50: Plasmodium falciparum, CQ-resistant DD2, pLDH 72 h, n = 3, read-out: Plasmodium falciparum IC50 DD2
Experimental: The assay was performed in quadruplicate. The data were analyzed by nonlinear regression analysis using the GraphPad PRISM version 5.00 program to determine the IC50 of each compound.

[2] = Metabolic stability in human liver microsomes; format: in vitro ADME
Experimental: Eq. 4 Predicted t1/2 t1/2=−0.693/λ (4) Where λ is the slope of the Ln % parent remaining vs. time curve. • v. Plasma protein binding. Plasma protein binding was determined in pooled human plasma using an ultracentrifugation method. Stock solutions of test compounds (10 mM) were diluted in phosphate buffer and spiked into plasma in deep well 96-well plates (10 µM). An aliquot of each compound was immediately precipitated with ice cold acetonitrile containing the internal standard carbamazepine (0.1 μM). These served as total concentration samples. After incubation in a water bath at 37°C for 1 h, the samples were transferred to ultracentrifuge tubes in duplicate and centrifuged for 4 h at 37°C and 30,000 g (Optima L-80XP, Beckman). Following centrifugation, the supernatant was transferred to the plate containing the total concentration samples and precipitated with ice cold acetonitrile containing the internal standard. Analyte concentrations of all compounds were determined via LC-MS/MS (reverse phase Gemini NX-C18 column and Shimadzu HPLC coupled with an AB Sciex 3200 Q TRAP MS) as described above. • vi. Metabolic stability. A 5-point metabolic stability assay in human and mouse liver microsomes were performed in duplicate in 96-well plates. […] The cofactor NADPH was added, and the reactions were subsequently stopped at time points 5, 10, 30 and 60 min by removal of an aliquot and quenching with ice cold acetonitrile containing the internal standard. The supernatant of all samples was analysed via LC-MS/MS analysis (reverse phase Gemini NX-C18 column and Shimadzu HPLC and AB Sciex 3200 Q TRAP MS) as described above.

[3] = tested on: CQ-sensitive Plasmodium falciparum NF54 strain; assay: Fixed ratio combination (isobologram) experiments, 72-h pLDH assay; format: cell-based; conditions: asexual blood stages, Pf NF54, fixed ratio isobologram
Experimental: Artemisone was used in the combination studies with each of AD01 and PhX6. Combination studies were conducted using a modified version of the method described by [Fivelman et al. (2004)] ([Fivelman et al., 2004]). Against drug-sensitive NF54 P. falciparum parasites in the standard 72-h pLDH assay. The drug stocks were then mixed to make 6 different volumetric ratios to obtain a range of concentrations (Table 2). Concentration ranges for combinations were prepared from the predetermined single IC50 values (Table 3) such that the IC50 of the individual compounds would be in the middle of the plate. The FIC50 and ∑FIC were calculated as described in Eqs 6–8 ([Fivelman et al., 2004]).
Eq. 6: FIC50 of compound A FIC50A=IC50 A+B/IC50 A
Eq. 7: FIC50 of compound B FIC50B=IC50 B+A/IC50 B
Finally, FIC50 values of compounds in respective combinations were plotted as isobolograms.
Although there is currently no standardised method to determine drug combination effects, many models are available ([Wagner and Ulrich-Merzenich, 2009]; [Matthews et al., 2017]). The fixed ratio isobologram method has been widely used in many fields including antimalarial drug discovery and development ([Fivelman et al., 2004]; [Wagner and Ulrich-Merzenich, 2009]; [Matthews et al., 2017]). […] The relationship can also be determined by plotting the FIC50 of each compound on separate axes to create an isobologram. […]

| Structure (SMILES) | Resistance index [1] | IC50 [1] [µM] | CLint scaled [2] [mL/min/kg] | Interaction in combination with artemisone (overall, in words) [3] |
| --- | --- | --- | --- | --- |
| CCN(CC)c1ccc2nc3ccc(=[N+](CC)CC)cc-3sc2c1 [AD01] | 0.5 | 0.0119 ± 0.0028 | 16.2 | enhanced synergistically |
| CCN(CC)c1ccc2nc3c4ccccc4/c(=N\c4ccccn4)cc-3oc2c1 [PhX6] | 0.4 | 0.0162 ± 0.0024 | 20.2 | enhanced synergistically |
